Among the data in US20060205809A1, “Pharmaceutical preparation containing palladium complex compounds and the uses thereof for treating cancer and autoimmune disease” (priority 2002, published 2006) are IC50 values, retold here.

pIC50: −log10 of the molar value. Like-named read-outs stand apart in the source and are kept apart here.

By pIC50 is commonly meant the negative decadic logarithm of the IC50, by convention in mol/L.

For one test, the system named is CALU-6 (lung cancer). The experiment in a line: Cytotoxicity assay, 2 h drug exposure at pH 6.8 or 7.4, crystal violet staining. Format: cell-based, human. Particulars: then 72 h. As to the method: (§1) The Pd-complexes were dissolved in acetone (1 mg/ml stock solution). Human cancer cell lines SK-MEL 25 (melanoma) and CALU-6 (lung cancer) were used for the determination of the cytotoxic activity of Pd-complexes. For comparison, the well known anti-tumor drugs cisplatin and corresponding platinum complexes were included. Cells were seeded at a density of 2×10^6 cells/96 well plate. After 24 h, tissue culture medium was removed and fresh medium supplemented with 10% fetal calf serum and 100 units/ml penicillin/streptomycin containing either 2.2 g/l (pH 7.4) or 0.85 g/l (pH 6.8) NaHCO3 was added. After 1 hour of equilibration in an atmosphere containing 5% CO2, drugs were added at various concentrations (50, 25, 12.5, 6.25, 3.1, 1.6, 0.8 μg/ml) in quadruplicate. Untreated cultures served as controls. Two hours later, the culture medium was replaced with 0.1 ml of fresh tissue culture medium (pH 7.4, 10% fetal calf serum). Culture plates were then incubated for 48 h (SK-MEL 25) or 72 h (Calu-6) at 37° C. Then, cells were fixed with 3% formaldehyde and stained with 1% crystalviolet. The number of viable cells is proportional to the amount of bound cristalviolet. Therefore, the relative cell number could be determined at an Antos 2001 ELISA reader (550 nm). Dose response curves were established from the OD data and the concentration at which the cell number was reduced to 50% of the control (IC50) was determined.

In another test the test system is SK-MEL 25 (melanoma). The description is as above. The following applies: then 48 h. Format: cell-based, human. The method, then:
as §1

Where [1] appears, read: CALU-6, pH 6.8, 2 h drug exposure, read-out: IC50-values, CALU-6, pH 6.8.
Setting [2] is: CALU-6, pH 7.4, 2 h drug exposure, read-out: IC50-values, CALU-6, pH 7.4.
[3] abbreviates: SK-MEL 25, pH 6.8, 2 h drug exposure, read-out: IC50-values, SK-MEL 25, pH 6.8.
The mark [4] stands for this setting: SK-MEL 25, pH 7.4, 2 h drug exposure, read-out: IC50-values, SK-MEL 25, pH 7.4.

Take `CCOC(=S)[S-].CCOC(=S)[S-].[Pt+2]` [Bis(O-ethyl-dithiocarbonato) platin, reference compound]: the pIC50 with CALU-6 (lung cancer) (setting [1]) was 4.92; with CALU-6 (lung cancer) (setting [2]) it was 4.55; in the test with SK-MEL 25 (melanoma) (setting [3]), 4.68; in the test with SK-MEL 25 (melanoma) (setting [4]), 4.35.
On the same counts, the results for `CC(C)OC(=S)[S-].CC(C)OC(=S)[S-].[Pt+2]` [Bis(O-isopropyl-dithiocarbonato)platin, reference compound] are 5.22, 5.00, 5.22 and 4.92.
Turning to `N.N.[Cl][Pt][Cl]` [Cisplatin, reference compound], the pIC50 with CALU-6 (lung cancer) (setting [1]) was 5.20; in the test on CALU-6 (lung cancer) (setting [2]), 5.20; in the test on SK-MEL 25 (melanoma) (setting [3]) it was 4.60; in the test with SK-MEL 25 (melanoma) (setting [4]), 4.60.
Regarding `S=C([S-])OC1CCCCC1.S=C([S-])OC1CCCCC1.[Pd+2]` [compound 1, Bis(O-cyclohexyl-dithiocarbonato)palladium(II)], the pIC50 with CALU-6 (lung cancer) (setting [1]) was 5.70; in the test on CALU-6 (lung cancer) (setting [2]), 5.40; in the test on SK-MEL 25 (melanoma) (setting [3]), 5.22; in the test with SK-MEL 25 (melanoma) (setting [4]) it was 5.00.
The matching figures for `CC(C)OC(=S)[S][Pd][S]C(=S)OC(C)C` [compound 2, Bis(O-isopropyl-dithiocarbonato)palladium(II)]: 6.22, 5.80, 6.10 and 5.89.
On the same counts, the results for `CCOC(=S)[S][Pd][S]C(=S)OCC` [compound 3, Bis(O-ethyl-dithiocarbonato)palladium(II)] are 5.70, 5.10, 5.30 and 4.85.
On the same counts, the results for `CCC(C)COC(=S)[S][Pd][S]C(=S)OCC(C)CC` (stereo not shown) [compound 4, Bis(O-(2-methyl)-butyl-dithiocarbonato)palladium(II)] are 5.70, 5.22, 5.22 and 5.05.
Turning to `CCCCOC(=S)[S-].CCCCOC(=S)[S-].[Pd+2]` [compound 5, Bis(O-butyl-dithiocarbonato)palladium(II)], the pIC50 was 6.00 in the test on CALU-6 (lung cancer) (setting [1]), 5.60 in the test with CALU-6 (lung cancer) (setting [2]), 6.00 in the test with SK-MEL 25 (melanoma) (setting [3]) and 5.51 in the test with SK-MEL 25 (melanoma) (setting [4]).
`CCCCCCOC(=S)[S-].CCCCCCOC(=S)[S-].[Pd+2]` [compound 6, Bis(O-hexyl-dithiocarbonato)palladium(II)]: the pIC50 is 5.51 in the test with CALU-6 (lung cancer) (setting [1]), 5.20 with CALU-6 (lung cancer) (setting [2]), 5.00 with SK-MEL 25 (melanoma) (setting [3]) and 5.00 with SK-MEL 25 (melanoma) (setting [4]).
Consider `COC(=S)[S-].COC(=S)[S-].[Pd+2]` [compound 7, Bis(O-methyl-dithiocarbonato)palladium(II)], for which the pIC50 in the test on CALU-6 (lung cancer) (setting [1]) was 5.80; in the test on CALU-6 (lung cancer) (setting [2]), 5.35; in the test with SK-MEL 25 (melanoma) (setting [3]), 5.35; in the test on SK-MEL 25 (melanoma) (setting [4]), 5.21.
